Results: patent publication US20150141375A1 (priority 2009, published 2015)
“And” between values parts separate entries of the source, which are not always exact repeats. Equal entries are not always repeated. Where two headings read alike, the source gives them in different places.

How the values were obtained:
HCMV(AD169) = experiment: In vitro potency against dsDNA viruses: HCMV; assay type: cell-based
Adenovirus = experiment: In vitro activity against Adenovirus (HFF; AdV 5); assay type: cell-based
HPV 18 = experiment: In vitro potency against dsDNA viruses: HPV 18; assay type: cell-based
[1] = RPTEC DNA replication (BrdU), metabolic activity (WST-1), proliferation (xCELLigence); assay type: cell-based, human; conditions: human; BKV-infected RPTECs; read-out: CC-90 (BrdU incorporation reduced to approximately 10% of untreated infected cells)
Description: (§1) RPTECs were infected with BKV(Dunlop). CMX001 was added before and 2 h postinfection (hpi). Cells and supernatants were harvested 24-72 hpi. BKV replication was examined by TaqMan assays, western blotting, IF staining and viability of RPTECs was examined by WST-1 assay, BrdU incorporation and a TaqMan assay.
(§2) To use more sensitive assays, host cell DNA replication and metabolic activity using BrdU incorporation and WST-1 assays in uninfected RPTECs were used. Addition of CMX001 reduced both DNA replication (FIG. 2a) and metabolic activity (FIG. 2b) of uninfected RPTECs in a concentration-dependent manner. Compared to untreated RPTECs, CMX001 at 0.08 to 10 μM decreased DNA replication by 15% to 93% and the metabolic activity by 41% to 88%, respectively.
(§3) The mitocondrial metabolic activity was monitored by the colorimetric WST-1 assay (Roche, Rotkreuz, Switzerland) measuring reduction of the Tetrazolium salt, WST-1, by mitochondrial dehydrogenases. DNA synthesis was quantified by colorimetric measurement of BrdU incorporation into DNA using the “Cell proliferation ELISA, BrdU” kit (Roche). The attachment and proliferation of the cells was measured as impedance using E-plates and the xCelligence system (Roche). In order for the RPTECs to attach and proliferate on the E-plates, the plates were first coated with fibronectin. Next the background impedance of the plates was monitored by addition of 100 μl medium to each well, before the plate was connected to the system and checked in the cell culture incubator for proper electrical-contacts. Subsequently, 100 μl cell suspension containing the indicated cell numbers was seeded. To determine the effect of BKV infection and CMX001 treatment, about 24 h after seeding 150 μl of the media was replaced with fresh media with or without purified BKV-Dunlop in the presence or absence of CMX001 (final concentration of 0.31 μM). The cells were grown for 96 h and impedance was measured every 15 minutes for the first 6 h then every 30 minutes. Impedance was expressed as an arbitrary unit called the Cell Index.

RPTECs = experiment: as above; assay type: cell-based, human; conditions: for reduction of rate of RPTEC proliferation (xCelligence): CMX001 0.31 μM, 48 h postexposure
Description: as §1, §2, §3

BKV = experiment: EIND patients previously treated with other antivirals: BKV; assay type: in vivo, human
Description: (§4) A further study has been conducted on patients with various viral infections and diseases associated with virus.
(§5) As shown in Table 5(b), all patients that have been previously treated with other antiviral agents for example cidofovir. […] After these patients are treated with CMX001, the patients show significant improvements.

ADV = experiment: EIND patients previously treated with other antivirals: ADV; assay type: in vivo, human; conditions: EIND 108104
Description: as §4, §5

AdV 5 = tested on: AdV 5; set-up: species or system Syrian Hamster; conditions: hamster, in vivo
HSV-1 = experiment: microbe, parasite or virus in culture; assay type: cell-based
JCV = experiment: Established JCV infection of SVG cells, in situ DNA hybridization; assay type: cell-based, JC virus; conditions: 0.1 μM, four days
[2] = Single-dose, dose-escalation study in healthy adult volunteers; assay type: in vivo, human
Description: A randomized double-blind, placebo-controlled, single-dose, dose-escalation study of CMX001 in healthy adult volunteers was conducted.
Nine single dose cohorts-CMX001:placebo (2:1)
Six subjects per cohort; 36 received CMX001; 18 received placebo
Highest dose was 2 mg/kg (140 mg in a 70 kg person)
Six multiple dose cohorts-CMX001:placebo (2:1) (3 doses over 3 weeks)
Five subjects per cohort; 20 received CMX001; 10 received placebo

CMV = experiment: First fifteen EIND patients: CMV; assay type: in vivo, human; conditions: six CMV patients, three evaluable
From the text: Three were evaluable for viral load reductions and 3/3 responded. Two of the patients who could not be evaluated for reductions in CMV had undetectable levels throughout CMX001 therapy. One patient received only one dose of CMX001 with no virologic follow up.

[3] = assay type: in vivo, human; conditions: individual patients
[4] = human, oral, CMX001 2 mg/kg single dose, plasma, Mean

CCCCCCCCCCCCCCCCOCCCOP(=O)(O)CO[C@H](CO)Cn1ccc(N)nc1=O [CMX001, Hexadecyloxypropyl-cidofovir]
Enhanced Activity (HCMV(AD169); CMX001 versus cidofovir EC50): 422
EC50 (HCMV(AD169); Human betaherpesvirus 5, AD169, MRC5, MRC-5): 0.9 nM
Enhanced Activity (Adenovirus; CMX001 versus cidofovir EC50): 65
IC50 (Adenovirus; unidentified adenovirus): 20 nM
EC50 (Adenovirus; unidentified adenovirus, HFF): 20 nM
Enhanced Activity (HPV 18; CMX001 versus cidofovir EC50): 1229
EC50 (HPV 18; HeLa): 420 nM
CC90 [1]: 10000 nM
reduction of rate of RPTEC proliferation (xCelligence) (RPTECs; exponentially growing BKV infected cells): approximately 35%
reduction of rate of RPTEC proliferation (xCelligence) (RPTECs; exponentially growing uninfected cells): approximately 25%
SI-90 (RPTECs; estimated, RPTECs): 62.5
hemorrhagic cystitis (BKV; EIND 107275): improved while on CMX001
BK viruria (BKV; EIND 107640, declined from 120 million): 48 million copies/mL
BK viremia (BKV; EIND 107640, decreased from 1900): 1900 to 28 copies/mL; BK
Hemorragic cystitis (BKV; EIND 108897): Hemorragic cystitis resolved
BKV in urine (BKV; EIND 108897, at last dose (baseline 7.7 log10), 4 mg/kg twice weekly 2 weeks): log10 at baseline to 5.1 log10 at last
decrease of BKV in urine (BKV; EIND 109232, first two weeks, 2 mg/kg twice weekly): BKV in urine decreased 2.2 log10
AdV viruria rebound, distance from baseline (ADV): within 0.7 log10 from baseline.
hemorrhagic cystitis (ADV): cystitis improved.
initial decline of AdV viruria (ADV): 2.8 log10 decline, but it rebounded to
reduction of infectious AdV5 titers in liver (AdV 5): 6 logs
EC50 (HSV-1; Human alphaherpesvirus 1, ACV resistant strain B-2006): 10 ± 0.7 nM
EC50 (HSV-1; Human alphaherpesvirus 1, ACV resistant strain DM2.1): 8 nM
EC50 (HSV-1; Human alphaherpesvirus 1, ACV resistant strain PAAr5): 10 nM
EC50 (HSV-1; Human alphaherpesvirus 1, F (wild type), Table 9): 15 ± 6 nM
EC50 (HSV-1; Human alphaherpesvirus 1, SC16, ACV resistant strain SC16-S1): 10 nM
EC50 (HSV-1; Human alphaherpesvirus 1, read-out: EC50 range, panel of wild-type and ACV-resistant isolates of HSV-1 and HSV-2): 8 to 30 nM
EC50 (HSV-1; Human alphaherpesvirus 1, strain E-377): 60 ± 30 nM
EC50 (HSV-1; Human alphaherpesvirus 1, strain F): 10 ± 5 nM
EC50 (HSV-1; Human alphaherpesvirus 1, strain HL-3): 10 ± 10 nM
elimination of JCV positive cells, normalized to total cell number (JCV): 94%
AUC(0-t) [2, 4]: 2610 ng·h/mL
Cmax [2, 4]: 350 ng/mL
Tmax [2, 4]: 3 h
half-life [2, 4]: 24 h
AUC(0-inf) ([2]; human, oral, CMX001 2 mg/kg single dose, plasma, Mean, read-out: AUCinf_obs): 2650 ng·h/mL
tolerability ([2]; single and multiple doses): well tolerated
evaluable patients responding (viral load reductions) (CMV): 3/3
WBC (3) ([3]; value on day one of CMX001 treatment): 3.6 (3) and 5.2 (3) and 2.17 (3)
WBC (4) ([3]; value on last day of CMX001 treatment): 5.4 (4) and 4.3 (4)
